Source: article PMC9468151, “Identification of a binding site on soluble RANKL that can be targeted to inhibit soluble RANK-RANKL interactions and treat osteoporosis” (Nature Communications, 2022)
“And” between values parts separate entries of the source, which are not always exact repeats. Equal values may be shown once.

Columns and labels:
[1] = system: osteoclast markers (DC-stamp, Ctsk, MMP9, Tracp, Oscar, Calcr); experiment: RT-qPCR of osteoclast marker genes in BMMs; format: cell-based, mouse
Description: The mRNA expression level of S3-15 was measured by RT–qPCR as primary described. Total cellular RNA sample was prepared using RNAiso Plus, followed by reverse transcription with PrimeScript™ MixRT Master Mix reverse transcriptase kit. Then quantitative real-time PCR assays were performed with TB Green™ premix EX Taq™ II kit on an Applied Biosystems. […] signaling inhibiting effect was determined by western blotting. RAW264.7 cells were treated with 5 μM S3-15 with or without sRANKL (100 ng/mL) for 5, 10, 30 and 60 min after starved for 1 h. Then the cells were washed with cold PBS and lysed by RIPA Lysis Buffer. Cell lysates were then processed for Western Blotting analyses. Primary antibody binding was detected using rat secondary antibodies (1:5000) coupled with enhanced chemiluminescence (ECL) reagents (Thermo Scientific) and visualized on Tanon 5200. Primers used for qPCR and antibodies used for western blotting were seen supplementary materials for details.

T lymphocyte = T lymphocyte cell proliferation assay (CFSE, CD4+/CD8+ flow cytometry); format: cell-based, human
Description: T lymphocyte cell proliferation assay was performed according to a reported method[58] with some modification. Briefly, 5 × 10^6 cells /mL cells were stained 2.5 μM CFSE (Tonbo Biosciences) and incubated at 37 °C for 12 min. Then washed and discarded the supernatant and adjusted the CFSE stained cell to 1.75 × 10^6 cells /mL. Cells were diluted in 1640 completed medium containing 5 μg/mL anti-CD3 antibody (Tonbo Biosciences) to 3 × 10^5 cells/mL and seed in a 96-well plate or 24-well plate that pre-packaged 0.4 μg/well anti-CD28 antibody and 1.6 μg anti-CD28 antibody (24-well) (Tonbo Biosciences). Cells were then cultured for 3 days, 9 days or 12 days. Subsequently, the proportion of CD4^+ and CD8^+ cells was determined by flow cytometry (Beckman Coulter, FC500) according to manufacturer’s instruction of PE-Cyanine7 anti-Human CD8a and PE anti-Human CD4 antibodies (Tonbo Biosciences). Data analyzing was performed by using CXP software (Beckman Coulter, Supplementary Fig. 8).

[2] = BMMs, 100 ng/mL sRANKL + S3-15, relative to vehicle
[3] = versus Vehicle, three replicates
[4] = Cancer donor 1, 3 day, S3-15 0.2
[5] = Cancer donor 1, 3 day, S3-15 10
[6] = Healthy donor 1, 3 day, S3-15 0.2
[7] = Healthy donor 1, 3 day, S3-15 1
[8] = Healthy donor 1, 3 day, S3-15 5
[9] = Healthy donor 1, 3 day, S3-15 10
[10] = Healthy donor 1, 12 day, S3-15 0.2
[11] = Healthy donor 1, 12 day, S3-15 1

What does the source list for `CC(=O)/C(=N\Nc1ccccc1C(=O)O)C(=O)Nc1ccccn1` [S3-15]?
osteoclastogenesis related gene expression without RANKL ([1]; BMMs without RANKL): cannot affect; Calcr mRNA expression [1, 2]: 452.218 and 472.155 and 436.053; Ctsk mRNA expression [1, 2]: 96.8459 and 61.7386 and 86.8018; DC-Stemp mRNA expression [1, 2]: 112.451 and 102.455 and 155.105; MMP9 mRNA expression [1, 2]: 167.711 and 113.637 and 211.945; Oscar mRNA expression [1, 2]: 160.036 and 111.839 and 197.432; Tracp mRNA expression [1, 2]: 180.942 and 181.792 and 170.309; Calcr relative expression (fig. S3i) [1, 3]: 0.46 and 0.59 and 1.1; Ctsk relative expression (fig. S3i) [1, 3]: 1.05 and 0.94 and 2.17; DC-Stamp relative expression (fig. S3i) [1, 3]: 0.75 and 0.62 and 1.46; MMP9 relative expression (fig. S3i) [1, 3]: 1.19 and 1.06 and 1.03; Oscar relative expression (fig. S3i) [1, 3]: 0.54 and 0.76 and 2.12; Tracp relative expression (fig. S3i) [1, 3]: 0.53 and 0.95 and 1.32; CD8+ cells in total cells (%) (T lymphocyte; [4]): 14.3% and 18.21% and 16% and 17.82%; CD8+cells in CFSE-cells (%) (T lymphocyte; [4]): 44.38% and 49.16% and 53.36% and 45.53%; CFSE- cells in total cells (%) (T lymphocyte; [4]): 7.99% and 11.49% and 11.51% and 10.07%; CD8+ cells in total cells (%) (T lymphocyte; Cancer donor 1, 3 day, S3-15 1): 15.56% and 19.33% and 22.39% and 19.99%; CD8+cells in CFSE-cells (%) (T lymphocyte; Cancer donor 1, 3 day, S3-15 1): 49.17% and 50.09% and 56.77% and 50.35%; CFSE- cells in total cells (%) (T lymphocyte; Cancer donor 1, 3 day, S3-15 1): 9.93% and 12.76% and 16.17% and 13.25%; CD8+ cells in total cells (%) (T lymphocyte; Cancer donor 1, 3 day, S3-15 5): 18.34% and 20.27% and 20.25% and 13.63%; CD8+cells in CFSE-cells (%) (T lymphocyte; Cancer donor 1, 3 day, S3-15 5): 56.42% and 54.7% and 55.11% and 51.68%; CFSE- cells in total cells (%) (T lymphocyte; Cancer donor 1, 3 day, S3-15 5): 12.69% and 14.11% and 13.95% and 8.72%; CD8+ cells in total cells (%) (T lymphocyte; [5]): 19.25% and 18.44% and 17.07% and 14.93%; CD8+cells in CFSE-cells (%) (T lymphocyte; [5]): 49.18% and 47.91% and 49.38% and 44.39%; CFSE- cells in total cells (%) (T lymphocyte; [5]): 12.56% and 11.54% and 10.9% and 9.12%; CD4+cells in total cells (%) (T lymphocyte; [6]): 68.58% and 70.02% and 62.64% and 62.46%; CD8+ cells in total cells (%) (T lymphocyte; [6]): 18.64% and 19.25% and 16.01% and 13.6%; CD8+cells in CFSE-cells (%) (T lymphocyte; [6]): 20.07% and 33.28% and 21.3% and 26.99%; CFSE- cells in total cells (%) (T lymphocyte; [6]): 25.93% and 25.33% and 20.8% and 18.33%; CD4+cells in total cells (%) (T lymphocyte; [7]): 63.51% and 67.38% and 70.68% and 68.88%; CD8+ cells in total cells (%) (T lymphocyte; [7]): 12.65% and 15.35% and 17.94% and 14.88%; CFSE- cells in total cells (%) (T lymphocyte; [7]): 21.49% and 20.46% and 25.21% and 18.85%; CD4+cells in total cells (%) (T lymphocyte; [8]): 68.14% and 68.06% and 70.19% and 66.42%; CD8+ cells in total cells (%) (T lymphocyte; [8]): 12.78% and 16.22% and 14.24% and 15.07%; CD8+cells in CFSE-cells (%) (T lymphocyte; [8]): 16% and 25.32% and 17.12% and 15.1%; CFSE- cells in total cells (%) (T lymphocyte; [8]): 22.52% and 22.58% and 17.52% and 21.09%; CD4+cells in total cells (%) (T lymphocyte; [9]): 72.21% and 54.01% and 61.69% and 61.53%; CD8+ cells in total cells (%) (T lymphocyte; [9]): 17.68% and 18.86% and 15.27% and 10.99%; CD8+cells in CFSE-cells (%) (T lymphocyte; [9]): 13.48% and 20.77% and 16.03%; CFSE- cells in total cells (%) (T lymphocyte; [9]): 22.22% and 20.93% and 15.94%; CD4+cells in total cells (%) (T lymphocyte; [10]): 25.25% and 26.11% and 25.81% and 23.7%; CD8+ cells in total cells (%) (T lymphocyte; [10]): 16% and 15.3% and 20.01% and 21.66%; CD8+cells in CFSE-cells (%) (T lymphocyte; [10]): 74.91% and 72.37% and 73.55% and 71.27%; CFSE- cells in total cells (%) (T lymphocyte; [10]): 16.3% and 15.37% and 18.72% and 19.27%; CD4+cells in total cells (%) (T lymphocyte; [11]): 25.53% and 24.4% and 24.71% and 25.6%; CD8+ cells in total cells (%) (T lymphocyte; [11]): 15.74% and 17.31% and 17.44% and 15.99%
